Laboratory results reported in patent US12310929B2, “Use of rasagiline for the treatment of restless legs syndrome” (TEVA PHARMACEUTICAL INDUSTRIES, LTD., priority 2006, dated 2025).
Where two headings read alike, the source gives them in different places.

What was measured:
[1] = system: RLS subjects; conditions: for CGI-I Total Mean / CGI-I Total Median: scale 1-7, rasagiline 1 mg/day oral
Procedure: (§1) This was the first clinical study in which rasagiline was administered to RLS subjects. The dosage regimen of 1 mg/day rasagiline was chosen based on the optimal dosage regimen for the symptomatic treatment of PD. […] Therefore, in the event that a subject could not tolerate the 1 mg daily dose of rasagiline, a daily dose of 0.5 mg rasagiline was permitted. Rasagiline was administered orally as a tablet. Both the 1 mg and 0.5 mg rasagiline tablets were beveled round tablets, flat, white to off-white, scored on one side, plain on the other side. Teva Pharmaceutical Industries Ltd. was responsible for the manufacture and primary packaging of study medications according to current Good Manufacturing Practice (cGMP) principles and guidelines applicable to investigational medicinal products.
Subjects were scored on this scale at weeks 2, 4, and 8. The mean score at each of these time points was calculated as a secondary efficacy endpoint.

[2] = system: old rats with periodic hindlimb movements; conditions: daily treatment; 3 consecutive nights beginning 7 days after onset; vs vehicle-treated rats
Procedure: In a group of old rats 16-20 months, sleep-wake behavior is recorded and hindlimb movements are detected by means of a magneto-inductive device during two 12-h light periods (Baier P. C. et al., Assessment of spontaneously occurring periodic limb movements in sleep in the rat, J. Neurol. Sci. 2002; 198(1-2): 71-77). Periodic hindlimb movements (PHLM) during nonrapid eye movement sleep (NREM) are identified according to modified human criteria in some of the rats, which are then selected for the rasagiline study. Half the rats are treated daily with rasagiline while the other half receive vehicle. Incidence of PHLM is determined for 3 consecutive nights, beginning 7 days after onset of treatment.

[3] = system: early Parkinson's disease subjects; conditions: rasagiline-treated subjects; cited from earlier work
[4] = system: RLS subjects; conditions: for Optimal Sleep (Absolute Change) Mean / Optimal Sleep (Absolute Change) Median / Optimal Sleep (Percent Change) Mean / Optimal Sleep (Percent Change) Median / Optimal Sleep Scale Mean / Optimal Sleep Scale Median / Sleep Quantity (Absolute Change) Mean / Sleep Quantity (Absolute Change) Median / Sleep Quantity (Percent Change) Mean / Sleep Quantity (Percent Change) Median / Sleep Quantity (raw score) Mean / Sleep Quantity (raw score) Median / Sleep Snoring (Percent Change) Mean / Sleep Snoring (Percent Change) Median / Short of Breath Scale Mean / Short of Breath Scale Median / Sleep Adequacy (Absolute Change) Mean / Sleep Adequacy (Absolute Change) Median / Sleep Adequacy (Percent Change) Mean / Sleep Adequacy (Percent Change) Median / Sleep Adequacy Mean / Sleep Adequacy Median / Sleep Disturbance (Absolute Change) Mean / Sleep Disturbance (Absolute Change) Median / Sleep Disturbance (Percent Change) Mean / Sleep Disturbance (Percent Change) Median / Sleep Disturbance Scale Mean / Sleep Disturbance Scale Median / Sleep Problems Index I (Absolute Change) Mean / Sleep Problems Index I (Absolute Change) Median / Sleep Problems Index I (Percent Change) Mean / Sleep Problems Index I (Percent Change) Median / Sleep Problems Index I Mean / Sleep Problems Index I Median / Sleep Problems Index II (Absolute Change) Mean / Sleep Problems Index II (Absolute Change) Median / Sleep Problems Index II (Percent Change) Mean / Sleep Problems Index II (Percent Change) Median / Sleep Problems Index II Mean / Sleep Problems Index II Median / Sleep Short of Breath (Absolute Change) Mean / Sleep Short of Breath (Absolute Change) Median / Sleep Snoring (Absolute Change) Mean / Sleep Snoring (Absolute Change) Median / Sleep Somnolence (Absolute Change) Mean / Sleep Somnolence (Absolute Change) Median / Sleep Somnolence (Percent Change) Mean / Sleep Somnolence (Percent Change) Median / Snoring Scale Mean / Snoring Scale Median / Somnolence Scale Mean / Somnolence Scale Median: rasagiline 1 mg/day oral
Procedure: as §1
The Sleep Scale is a 12-item scale that provides a comprehensive view across almost all dimensions of sleep including daytime somnolence, sleep disturbance, sleep adequacy and sleep quantity. The investigator scored subjects on this scale at the baseline and Week 4, and 8 visits. The change from baseline to each post-baseline study visit was calculated as a secondary efficacy endpoint. (Hays, R. D. & Steward, A. L. (1992). Sleep measures. In A. L. Stewart & J. E. Ware (eds.), Measuring functioning and well-being: The Medical Outcomes Study approach (pp. 235-259), Durham, NC: Duke University Press.
N is the number of participants in the study. A low score indicates the absence of problems and a high score indicates a very severe problem.

[5] = by eight weeks, remaining subject

C#CCN[C@@H]1CCc2ccccc21 [rasagiline, R-(+)-N-propargyl-1-aminoindan]
CGI-I Total Mean ([1]; VISIT WEEK 2, N=2): 3.50 | CGI-I Total Median ([1]; VISIT WEEK 2, N=2): 3.0 | CGI-I Total Mean ([1]; VISIT WEEK 4, N=2): 3.50 | CGI-I Total Median ([1]; VISIT WEEK 4, N=2): 3.50 | CGI-I Total Mean ([1]; VISIT WEEK 8, N=1): 1.00 | CGI-I Total Median ([1]; VISIT WEEK 8, N=1): 4.00 | RLS symptoms on the CGI-I rating scale [1, 5]: Very Much Improved | incidence of periodic hindlimb movements (PHLM) [2]: significantly fewer | most commonly reported adverse events [3]: pain, headache and dizziness | side effects typical of dopaminergic medications (hallucinations, somnolence, edema, nausea, vomiting, diarrhea) [3]: infrequently reported | Optimal Sleep (Absolute Change) Mean ([4]; VISIT WEEK 4, N=1): 0.00 | Optimal Sleep (Absolute Change) Median ([4]; VISIT WEEK 4, N=1): 0.00 | Optimal Sleep (Percent Change) Mean ([4]; VISIT WEEK 4, N=1): 0.00% | Optimal Sleep (Percent Change) Median ([4]; VISIT WEEK 4, N=1): 0.00% | Optimal Sleep Scale Mean ([4]; VISIT WEEK 4, N=1): 1.00 | Optimal Sleep Scale Median ([4]; VISIT WEEK 4, N=1): 1.00 | Sleep Quantity (Absolute Change) Mean ([4]; VISIT WEEK 4, N=1): 0.00 | Sleep Quantity (Absolute Change) Median ([4]; VISIT WEEK 4, N=1): 0.00 | Sleep Quantity (Percent Change) Mean ([4]; VISIT WEEK 4, N=1): 0.00% | Sleep Quantity (Percent Change) Median ([4]; VISIT WEEK 4, N=1): 0.00% | Sleep Quantity (raw score) Mean ([4]; VISIT WEEK 4, N=1): 7.00 | Sleep Quantity (raw score) Median ([4]; VISIT WEEK 4, N=1): 7.00 | Sleep Snoring (Percent Change) Mean ([4]; VISIT WEEK 4, N=1): 0.00% | Sleep Snoring (Percent Change) Median ([4]; VISIT WEEK 4, N=1): 0.00% | Short of Breath Scale Mean ([4]; VISIT WEEK 4, N=2): 0.00 | Short of Breath Scale Median ([4]; VISIT WEEK 4, N=2): 0.00 | Sleep Adequacy (Absolute Change) Mean ([4]; VISIT WEEK 4, N=2): 15.00 | Sleep Adequacy (Absolute Change) Median ([4]; VISIT WEEK 4, N=2): 15.00 | Sleep Adequacy (Percent Change) Mean ([4]; VISIT WEEK 4, N=2): 25.00% | Sleep Adequacy (Percent Change) Median ([4]; VISIT WEEK 4, N=2): 25.00% | Sleep Adequacy Mean ([4]; VISIT WEEK 4, N=2): 55.00 | Sleep Adequacy Median ([4]; VISIT WEEK 4, N=2): 55.00 | Sleep Disturbance (Absolute Change) Mean ([4]; VISIT WEEK 4, N=2): −7.50 | Sleep Disturbance (Absolute Change) Median ([4]; VISIT WEEK 4, N=2): −7.50 | Sleep Disturbance (Percent Change) Mean ([4]; VISIT WEEK 4, N=2): −20.00% | Sleep Disturbance (Percent Change) Median ([4]; VISIT WEEK 4, N=2): −20.00% | Sleep Disturbance Scale Mean ([4]; VISIT WEEK 4, N=2): 33.75 | Sleep Disturbance Scale Median ([4]; VISIT WEEK 4, N=2): 33.75 | Sleep Problems Index I (Absolute Change) Mean ([4]; VISIT WEEK 4, N=2): −6.67 | Sleep Problems Index I (Absolute Change) Median ([4]; VISIT WEEK 4, N=2): −6.67 | Sleep Problems Index I (Percent Change) Mean ([4]; VISIT WEEK 4, N=2): −40.00% | Sleep Problems Index I (Percent Change) Median ([4]; VISIT WEEK 4, N=2): −40.00% | Sleep Problems Index I Mean ([4]; VISIT WEEK 4, N=2): 26.67 | Sleep Problems Index I Median ([4]; VISIT WEEK 4, N=2): 26.67 | Sleep Problems Index II (Absolute Change) Mean ([4]; VISIT WEEK 4, N=2): −6.67 | Sleep Problems Index II (Absolute Change) Median ([4]; VISIT WEEK 4, N=2): −6.67 | Sleep Problems Index II (Percent Change) Mean ([4]; VISIT WEEK 4, N=2): 24.00% | Sleep Problems Index II (Percent Change) Median ([4]; VISIT WEEK 4, N=2): −24.00% | Sleep Problems Index II Mean ([4]; VISIT WEEK 4, N=2): 33.89 | Sleep Problems Index II Median ([4]; VISIT WEEK 4, N=2): 33.89 | Sleep Short of Breath (Absolute Change) Mean ([4]; VISIT WEEK 4, N=2): 0.00 | Sleep Short of Breath (Absolute Change) Median ([4]; VISIT WEEK 4, N=2): 0.00 | Sleep Snoring (Absolute Change) Mean ([4]; VISIT WEEK 4, N=2): 0.00 | Sleep Snoring (Absolute Change) Median ([4]; VISIT WEEK 4, N=2): 0.00 | Sleep Somnolence (Absolute Change) Mean ([4]; VISIT WEEK 4, N=2): −0.00 | Sleep Somnolence (Absolute Change) Median ([4]; VISIT WEEK 4, N=2): −0.00 | Sleep Somnolence (Percent Change) Mean ([4]; VISIT WEEK 4, N=2): −20.00% | Sleep Somnolence (Percent Change) Median ([4]; VISIT WEEK 4, N=2): −20.00% | Snoring Scale Mean ([4]; VISIT WEEK 4, N=2): 40.00 | Snoring Scale Median ([4]; VISIT WEEK 4, N=2): 40.00 | Somnolence Scale Mean ([4]; VISIT WEEK 4, N=2): 40.00 | Somnolence Scale Median ([4]; VISIT WEEK 4, N=2): 40.00 | Optimal Sleep (Absolute Change) Mean ([4]; VISIT WEEK 8, N=1): 0.00 | Optimal Sleep (Absolute Change) Median ([4]; VISIT WEEK 8, N=1): 0.00 | Optimal Sleep (Percent Change) Mean ([4]; VISIT WEEK 8, N=1): 0.00% | Optimal Sleep (Percent Change) Median ([4]; VISIT WEEK 8, N=1): 0.00% | Optimal Sleep Scale Mean ([4]; VISIT WEEK 8, N=1): 1.00 | Optimal Sleep Scale Median ([4]; VISIT WEEK 8, N=1): 1.00 | Short of Breath Scale Mean ([4]; VISIT WEEK 8, N=1): 0.00 | Short of Breath Scale Median ([4]; VISIT WEEK 8, N=1): 0.00 | Sleep Adequacy (Absolute Change) Mean ([4]; VISIT WEEK 8, N=1): 40.00 | Sleep Adequacy (Absolute Change) Median ([4]; VISIT WEEK 8, N=1): 40.00 | Sleep Adequacy (Percent Change) Mean ([4]; VISIT WEEK 8, N=1): 66.67% | Sleep Adequacy (Percent Change) Median ([4]; VISIT WEEK 8, N=1): 66.67% | Sleep Adequacy Mean ([4]; VISIT WEEK 8, N=1): 100.00 | Sleep Adequacy Median ([4]; VISIT WEEK 8, N=1): 100.00 | Sleep Disturbance (Absolute Change) Mean ([4]; VISIT WEEK 8, N=1): −16.25 | Sleep Disturbance (Absolute Change) Median ([4]; VISIT WEEK 8, N=1): −16.25 | Sleep Disturbance (Percent Change) Mean ([4]; VISIT WEEK 8, N=1): −43.33% | Sleep Disturbance (Percent Change) Median ([4]; VISIT WEEK 8, N=1): −43.33% | Sleep Disturbance Scale Mean ([4]; VISIT WEEK 8, N=1): 21.25 | Sleep Disturbance Scale Median ([4]; VISIT WEEK 8, N=1): 21.25 | Sleep Problems Index I (Absolute Change) Mean ([4]; VISIT WEEK 8, N=1): −16.67 | Sleep Problems Index I (Absolute Change) Median ([4]; VISIT WEEK 8, N=1): −16.67 | Sleep Problems Index I (Percent Change) Mean ([4]; VISIT WEEK 8, N=1): −100.00% | Sleep Problems Index I (Percent Change) Median ([4]; VISIT WEEK 8, N=1): −100.00% | Sleep Problems Index I Mean ([4]; VISIT WEEK 8, N=1): 0.00 | Sleep Problems Index I Median ([4]; VISIT WEEK 8, N=1): 0.00 | Sleep Problems Index II (Absolute Change) Mean ([4]; VISIT WEEK 8, N=1): −16.11 | Sleep Problems Index II (Absolute Change) Median ([4]; VISIT WEEK 8, N=1): −16.11 | Sleep Problems Index II (Percent Change) Mean ([4]; VISIT WEEK 8, N=1): −58.00% | Sleep Problems Index II (Percent Change) Median ([4]; VISIT WEEK 8, N=1): −58.00% | Sleep Problems Index II Mean ([4]; VISIT WEEK 8, N=1): 11.67 | Sleep Problems Index II Median ([4]; VISIT WEEK 8, N=1): 11.67 | Sleep Quantity (Absolute Change) Mean ([4]; VISIT WEEK 8, N=1): 0.00 | Sleep Quantity (Absolute Change) Median ([4]; VISIT WEEK 8, N=1): 0.00 | Sleep Quantity (Percent Change) Mean ([4]; VISIT WEEK 8, N=1): 0.00% | Sleep Quantity (Percent Change) Median ([4]; VISIT WEEK 8, N=1): 0.00% | Sleep Quantity (raw score) Mean ([4]; VISIT WEEK 8, N=1): 7.00 | Sleep Quantity (raw score) Median ([4]; VISIT WEEK 8, N=1): 7.00 | Sleep Short of Breath (Absolute Change) Mean ([4]; VISIT WEEK 8, N=1): 0.00 | Sleep Short of Breath (Absolute Change) Median ([4]; VISIT WEEK 8, N=1): 0.00 | Sleep Snoring (Absolute Change) Mean ([4]; VISIT WEEK 8, N=1): 20.00 | Sleep Snoring (Absolute Change) Median ([4]; VISIT WEEK 8, N=1): 20.00 | Sleep Snoring (Percent Change) Mean ([4]; VISIT WEEK 8, N=1): 25.00% | Sleep Snoring (Percent Change) Median ([4]; VISIT WEEK 8, N=1): 25.00% | Sleep Somnolence (Absolute Change) Mean ([4]; VISIT WEEK 8, N=1): 0.00 | Sleep Somnolence (Absolute Change) Median ([4]; VISIT WEEK 8, N=1): 0.00 | Sleep Somnolence (Percent Change) Mean ([4]; VISIT WEEK 8, N=1): 0.00% | Sleep Somnolence (Percent Change) Median ([4]; VISIT WEEK 8, N=1): 0.00% | Snoring Scale Mean ([4]; VISIT WEEK 8, N=1): 100.00 | Snoring Scale Median ([4]; VISIT WEEK 8, N=1): 100.00 | Somnolence Scale Mean ([4]; VISIT WEEK 8, N=1): 13.33 | Somnolence Scale Median ([4]; VISIT WEEK 8, N=1): 13.33 | improvement in the Sleep Problems Index II [4, 5]: 58%
